Key:
rat hepatocyte HDAC = test: Fluor de Lys HDAC inhibition assay in crude rat hepatocyte lysates; assay type: biochemical; settings: Fluor de Lys substrate, n = 3 or 4, read-out: Estimated IC50 values for tested compounds
Method: Screening of the HDAC inhibiting potencies of the above compounds was performed in crude rat hepatocyte lysates, prepared from freshly isolated cells, using the Fluor de Lys HDAC inhibition assay as detailed in example 9.
A two-step collagenase perfusion technique was used to isolate hepatocytes from male outbred Sprague-Dawley rats (200-300 g; Charles River Laboratories, Brussels, Belgium), which were kept under controlled environmental conditions (12 h light-dark cycle) and fed a standard diet (Animalabo A 04) with water ad libitum. Procedures for housing of the animals, and for isolation and cultivation of the rat hepatocytes were approved by the local ethical committee of the Vrije Universiteit Brussel (VUB, Brussels, Belgium).
Inhibition of HDAC activity was assessed in crude rat hepatocyte lysates by the Fluor de lys HDAC inhibition protocol as outlined herein:
HDAC Fluorescent Activity Assay/Drug Discovery Kit, Tebu-bio, AK-500.
• HDAC: thaw a rat hepatocyte cell extract (containing 6 mg/ml proteins) in tap water at room temperature, store on ice. • HDAC inhibitor:
Prepare a dilution series in assay buffer.
• Add 500 μl homogenisation buffer to 30×10^6 hepatocytes (pellets stored at −80° C.). • Ultrasonicate on ice 2×30 pulses • Let the homogenate(s) rest on ice during 5 min. • Transfer the homogenate(s) to 1.5 ml eppendorf tube(s) on ice, vortex vigorously. • Centrifugate at 14000 rpm in the microcentrifuge during 5 min at 4° C. • Determine the protein concentration (Bradford protein assay) of the supernatant, discard the pellets. • Dilute the extract(s) to a protein concentration of 6 mg/ml. Divide in aliquots of 500 μl (eppendorf tubes) and store for later use at −80° C.
1. bring 10 μl inhibitor/control solvents/assay buffer per well 2. add 15 μl cell extract to each well (for the blank: 15 μl boiled cell extract) 3. incubate 5 min at room temperature (cover plate with aluminium foil) 4. add 25 μl Fluor de Lys substrate to each well (40 μM solution, […]) 5. cover the plate with aluminium foil and incubate 15 min on orbital shaker 6. after 15 min, add 50 μl freshly prepared, ice-cold developer solution to each well 7. cover the plate with aluminium foil and incubate 15 min on orbital shaker 8. Measure the fluorescence in the plate reader
• Subtract the blank value (boiled extract) (background signal) • Calculate as % of ethanol control, that is set 100% • If the concentrations are spread around the 50% inhibition value, than the IC50 value can be calculated. […] (Note: the concentration should be set out as their logarithmic values)

primary rat hepatocytes [1] = test: Inhibition of DNA synthesis (3H-methylthymidine incorporation) in EGF-stimulated primary rat hepatocytes; assay type: cell-based; settings: DNA synthesis at day 3 (72 h), EGF 50 ng/ml
Method: Results are expressed as percentage of positive control (untreated cells cultured in the presence of mitogen). Total inhibition of hepatocyte proliferation is considered when DNA synthesis of treated cells equals DNA synthesis level of negative control (untreated cells cultivated in the absence of mitogen). Results shown are the means±SD from 4 or more independent experiments.
Screening of the anti-proliferative activity of the above compounds (effect on DNA synthesis) was performed as in example 10a.
The maximal (100%) inhibition of rat primary hepatocyte proliferation has been achieved with following concentrations:
Dose-dependent inhibition of cell proliferation by Jung-type HDACi after 3 days of incubation. Hepatocytes (0.4×10^5 cells/cm^2) were cultured in duplicate in a mixture of MEM/M199 (3:1, v/v) and stimulated to proliferate with EGF (50 ng/ml) 4 h after plating. Exposure to the indicated concentrations of HDACi started at time of plating and was maintained for 3 consecutive days. ^3H-methylthymidine incorporation was measured at day 3 (72 h) of culture. Cells cultured in the absence of EGF serve as a negative control for hepatocyte proliferation (neg. contr.) whereas cells stimulated with EGF alone serve as a positive control for hepatocyte proliferation (pos. contr.). Results are expressed as the percentage of maximal incorporation observed in hepatocytes cultured in the presence of EGF alone. Values shown are the means±SD of duplicate cultures of 3 experiments.

primary rat hepatocytes [2] = test: Location of cell cycle arrest in primary rat hepatocytes from cell cycle marker expression; assay type: cell-based; settings: 3 days incubation; absence of cyclin D1 and cdk1 protein expression, prior to the restriction point
Text: Assessed as in example 11a.
The effect of the different 6C-spacer compounds on the expression of key cell cycle proteins was investigated as well in order to identify the location of the cell cycle arrest.
Two cell cycle markers were studied as detailed in example 11a (see FIG. 8 for results): (a) cyclin D1, this protein is typically expressed when hepatocytes were able to pass the restriction point located in the mid-late G1 phase; and (b) cdk1, which is a marker for the S/G2/M phase (DNA synthesis takes place in the S phase).
Hepatocytes (0.4×10^5 cells/cm^2) were cultured in duplicate in a mixture of MEM/M199 (3:1; v/v) and stimulated to proliferate with EGF (50 ng/ml) 4 h after plating. Exposure to the indicated concentrations of HDACi started at time of plating and was maintained for 3 consecutive days: Cells were then harvested and analyzed for cyclin D1 and cdk1 expression levels (20 μg proteins/lane). Total ERK staining serves as a loading control.

[3] = system: freshly isolated rat hepatocytes; settings: incubated with freshly isolated rat hepatocytes, compared with TSA; cited from earlier work
HDAC = settings: literature statement; cited from earlier work
HNF-1α = test: LETF immunofluorescence during hepatic differentiation of RLECs; assay type: cell-based, rat; settings: TSA added to Sequential 3 differentiation protocol
Method: (§1) A: HNF-3b, B: HNF-4, C: HNF-1a, a: with DAPI counterstain, b: without DAPI counterstain.
(§2) • rinse cells 3× with PBS • fix nuclear and cytoplasmic proteins at room temperature for 10 min with 4% PFA (cold), connexins at −20° C. for 10 min with Ethanol/Aceton (50/50) and cytoskeletal proteins at −20° C. for 10 min with Ethanol. • wash 3×5 min with PBS • proceed with staining or store wells in PBS at 4° C. • check cells under microscope for autofluorescence and attachment • incubate 15 min with 100 mM glycin in PBS (used to saturate reactive groups generated after PFA fixation) • wash 3×5 min with PBS • incubate 15 min with PBST (permeabilization) • rinse 3× with PBS • block 45 min with block buffer at room temperature • incubate overnight at 4° C. with primary Ab diluted in PBS • rinse with PBS • wash 4×15 min with PBS • incubate with fluorescence-labeled secondary Ab 1 h 30 at room temperature (dilute Ab in PBS) • keep dark • wash 4×15 min with PBST • rinse with distilled water • mount with Vectashield with DAPI (use 3 drops per well)
(§3) For this experiment, the protocols of example 5 were used to differentiate RLECs towards the hepatic lineage with the exception of the sequential procedure. Sequential 3 from example 6 was used to differentiate the cells instead of the one stated in example 5. The immunofluorescence protocol-staining on cultured cells was used as stated in example 8.

HNF-3β = test: as above; assay type: cell-based, rat; settings: TSA added to Sequential 3 differentiation protocol
Method: as §1, §2, §3

HNF-4 = test: as above; assay type: cell-based, rat; settings: TSA added to Sequential 3 differentiation protocol
Method: as §1, §2, §3

RLEC = test: Morphology of RLEC differentiated in the presence of an HDAC inhibitor; assay type: cell-based, rat
Method: FIG. 15 illustrates morphology of RLEC differentiated in the presence of an HDAC inhibitor, as explained in example 13.
RLEC at 100% confluence are used for differentiation into hepatocyte-like cells: • after sub-cultivation, detach cells as described above and suspend all cells derived from 1 T75 and 1 T150 in 3 ml and 6 ml of new growth medium (37° C.), respectively. • homogenize the cell suspension by pipetting up and down. • add 420 μl growth medium to a 2 cm^2-well • transfer 80 μl of cell suspension to the middle of a 2 cm^2-well, precoated with 50-100 μg/ml collagen type I • tap to homogenize cell suspension; check cells under microscope • incubate cells at 37° C. in growth medium until cells have reached 100% confluence. • At 100% confluence, remove growth medium and expose cells to basal medium supplemented with liver specific factors, as follows: 1. days 0-1: 10 ng/ml FGF-4 2. days 1-3: 10 ng/ml FGF-4, 20 ng/ml HGF 3. days 3-6: 5 ng/ml FGF-4, 30 ng/ml HGF, 0.5×ITS 4. days 6-9: 30 ng/ml HGF, 0.25×ITS; 0.05 μM dexamethasone 5. days 9-12: 20 ng/ml HGF, 0.05 μM dexamethasone 6. days 12-15: 10 ng/ml HGF; 10 ng/ml OSM, 0.05 μM dexamethasone 7. From day 15 on: 10 ng/ml OSM, 0.05 μM dexamethasone
RLEC are differentiated without initial FGF-4 exposure, according to the following sequence:
1. days 0-3: 20 ng/ml HGF 2. days 3-6: 5 ng/ml FGF-4, 30 ng/ml HGF, 0.5×ITS 3. days 6-9: 30 ng/ml HGF, 0.25×ITS; 0.05 μM dexamethasone 4. days 9-12: 20 ng/ml HGF, 0.05 μM dexamethasone 5. days 12-15: 10 ng/ml HGF; 10 ng/ml OSM, 0.05 μM dexamethasone 6. From day 15 on: 10 ng/ml OSM, 0.05 μM dexamethasone
The results are illustrated in FIG. 15. […] The cells still have the characteristic RLEC shape. […] Optimisation of HDAC inhibitor concentration to reduce cell death is within the reach of a skilled person.

CYP1 A1 = test: Expression of CYP450 isoforms in rat primary hepatocytes; assay type: cell-based; settings: 4 days exposure; expression lost in untreated controls
Method: (§4) Measured as in example 11b.
(§5) Furthermore, pro-differentiating effect of AN-6, AN-8 and AN-10 was examined as described in example 11b. Namely, the expression of phase I biotransformation markers, CYP 450 isoforms was examined. […] In comparison, the expression of latter proteins was lost in controls (untreated cells).
(§6) Hepatocytes (0.57×10^5 cells/cm^2) were cultured in Williams' E medium supplemented with insulin (0.5 μg/ml), glucagon (7 ng/ml) and hydrocortisone (25 μg/ml). Exposure to the indicated concentrations of HDACi started at time of plating and was maintained for 4 consecutive days. Cells were harvested at indicated time points and analyzed for CYP2 B1 and CYP1 A1 expression levels (40 μg proteins/lane).

CYP2 B1 = test: as above; assay type: cell-based; settings: 4 days exposure; expression lost in untreated controls
Method: as §4, §5, §6

| SMILES | IC50 (rat hepatocyte HDAC) [nM] | Concentration achieving maximal (100%) inhibition of rat primary hepatocyte proliferation (primary rat hepatocytes [1]) [µM] | Cell cycle arrest (primary rat hepatocytes [2]) | further results |
| --- | --- | --- | --- | --- |
| O=C(CCCCCNC(=O)c1ccc(Cl)cc1)NO [AN-7] | 84 ± 27 | – | – | – |
| O=C(CCCCCNC(=O)c1ccc(N2CCCC2)cc1)NO [AN-8] | 55 ± 19 | 7.5 | induced an early G1 cell cycle arrest | – |
| O=C(CCCCNC(=O)c1cc2ccccc2[nH]1)NO [AN-9] | 313 ± 50 | – | – | – |
| O=C(CCCCCNC(=O)c1ccccc1)NO [AN-5] | – | 50 | able to induce a similar early G1 cell cycle arrest | – |
| O=C(CCCCNC(=O)c1ccc(N2CCCCC2)cc1)NO [AN-13] | 2250 ± 616 | – | – | – |
| O=C(CCCCCNC(=O)c1ccc(N2CCCCC2)cc1)NO [AN-15] | 500 ± 108 | – | – | – |
| CN(C)c1ccc(C(=O)NCCCCC(=O)NO)cc1 [AN-1, 5-(4-dimethylaminobenzoyl)-aminovaleric acid hydroxamid] | 301 ± 28 | 50 | – | – |
| CN(C)c1ccc(C(=O)NCCCCC(=O)NO)cc1 | – | – | – | Metabolic stability [3]: metabolically more stable than TSA; HDAC inhibitory activity (HDAC): potent HDAC inhibitor |
| O=C(CCCCCNC(=O)c1ccc(N2CCOCC2)cc1)NO [AN-16] | 1010 ± 310 | – | – | – |
| CC(/C=C/C(=O)NO)=C\[C@@H](C)C(=O)c1ccc(N(C)C)cc1 [TSA, Trichostatin A] | – | – | – | HNF-1α expression and localisation (HNF-1α): induces expression of HNF-1α in nucleus already on D3; HNF-3β expression and localisation (HNF-3β): already expressed at D3 of the differentiation process and is located inside the nucleus; HNF-4 expression and activity (HNF-4): expressed and active from D3 onwards, either with or without addition of TSA; Morphology of differentiating RLEC (RLEC; 320 nM, D2, example 13 sequence): more polygonal shape; Morphology of differentiating RLEC (RLEC; 1 μM, D9, example 13 sequence): differentiate into binuclear, polygonal to cuboidal shaped cells; Cell death of differentiating RLEC (RLEC; 1 μM, example 13 sequence): causes some cell death; Morphology of differentiating RLEC (RLEC; protocol of example 5 with TSA addition): more fibroblast like shape; HDAC inhibitory activity (HDAC): potent specific inhibitor of Class I and Class II HDAC in vitro and in vivo |
| O=C(CCCCNC(=O)c1ccc(N2CCOCC2)cc1)NO [AN-14] | 4490 ± 1820 | – | – | – |
| O=C(CCCCCNC(=O)c1cc2ccccc2[nH]1)NO [AN-10] | 14 ± 4 | 7.5 | induced an early G1 cell cycle arrest | CYP1 A1 expression during the entire culture period (CYP1 A1): remarkable ability to maintain |
| CN(C)c1ccc(C(=O)NCCCCCC(=O)NO)cc1 [AN-6, 6-(4-dimethylaminobenzoyl)-aminocaproic acid hydroxamid] | 24 ± 2 | 10 | induced an early G1 cell cycle arrest | CYP2 B1 expression during the entire culture period (CYP2 B1): remarkable ability to maintain |
